Assay results published in patent US20050148631A1, “Amino heterocyclyl inhibitors of 11-beta-hydroxy steroid dehydrogenase type 1” (AGOURON PHARMACEUTICALS, INC., priority 2003, published 2005).
Where two headings read alike, the source gives them in different places.

Experiments:
normal subjects = settings: ingestion; cited from earlier work
healthy human volunteers = settings: cited from earlier work
11β-hsd-1 enzyme [1] = target: T1, 11β-hsd-1 enzyme (Homo sapiens, UniProt P28845); assay: 11β-hsd-1 enzyme assay, Kiapp determination (3H-cortisone to cortisol, radio-HPLC); format: biochemical; settings: read-out: Ki app
11β-hsd-1 enzyme [2] = target: T1, 11β-hsd-1 enzyme; assay: 11β-hsd-1 enzyme assay, percentage of inhibition (3H-cortisone to cortisol, radio-HPLC); format: biochemical; settings: read-out: % inh @ 0.1 uM

T1 sequence (P28845 whole entry, species assumed): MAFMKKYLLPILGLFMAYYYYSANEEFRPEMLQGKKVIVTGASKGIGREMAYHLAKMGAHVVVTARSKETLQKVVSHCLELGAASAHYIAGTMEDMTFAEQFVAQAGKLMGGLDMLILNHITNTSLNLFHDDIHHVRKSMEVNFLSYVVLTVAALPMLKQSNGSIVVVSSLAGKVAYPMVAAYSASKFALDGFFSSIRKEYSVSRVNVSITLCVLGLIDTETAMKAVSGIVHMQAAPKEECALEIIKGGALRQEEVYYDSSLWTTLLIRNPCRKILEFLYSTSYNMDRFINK

SMILES | Ki (11β-hsd-1 enzyme [1]; apparent Ki, 11β-hsd-1 enzyme) | inhibition at 0.1 µM (11β-hsd-1 enzyme [2]; compound at 0.1 uM) | Ki (11β-hsd-1 enzyme [1]) | inhibition at 0.1 µM (11β-hsd-1 enzyme [2]; 0.1 uM) | further results
CC1(C)[C@@H](OC(=O)CCC(=O)O)CC[C@]2(C)[C@H]3C(=O)C=C4[C@@H]5C[C@@](C)(C(=O)O)CC[C@]5(C)CC[C@@]4(C)[C@]3(C)CC[C@@H]12 [carbenoxolone] |  |  |  |  | reduction of intraocular pressure (normal subjects): 20%; hepatic insulin sensitivity (healthy human volunteers): improved
Cc1cccc(NS(=O)(=O)N2CCC(c3ccc(F)cc3)CC2)n1 [Example 301] | 0.0049 µM | 100% |  |  | 
CCN(CC)C(=O)Cc1cccc(NS(=O)(=O)c2ccc3ccccc3c2)n1 [Example 22] |  |  | 0.17 µM | 44.7% | 
CCOC(=O)Cc1cccc(NS(=O)(=O)c2ccc(-c3ccc(C#N)cc3)cc2)n1 [Example 2] |  |  | 0.016 µM | 85.4% | 
CCOc1cccc(-c2ccc(S(=O)(=O)Nc3cccc(C)n3)c(C)c2)c1 [Example 165] |  |  | 0.043 µM | 71% | 
Cc1cccc(NS(=O)(=O)c2ccc(C(F)(F)F)cc2)n1 [Example 35] |  |  | 0.108 µM | 98% | 
Cc1cccc(NS(=O)(=O)c2ccc(-c3cc(F)ccc3F)cc2C)n1 [Example 202] | 0.014 µM | 88% |  |  | 
N#Cc1ccc(-c2ccc(S(=O)(=O)Nc3ccc4occc4n3)cc2)cc1 [Example 86] |  |  | 0.0143 µM | 100% | 
Cc1ccc(-c2ccc(S(=O)(=O)Nc3cccc(C)n3)cc2C)cc1 [Example 215] | 0.016 µM | 90% |  |  | 
Cc1cccc(NS(=O)(=O)c2ccc(-c3cccc(Cl)c3)cc2C)n1 [Example 163] |  |  | 0.008 µM | 97% | 
Cc1c(Cl)cccc1S(=O)(=O)Nc1cccc(N)n1 [Example 41] |  |  | 0.017 µM | 94% | 
Cc1cccc(NS(=O)(=O)c2sc3ccc(C#N)cc3c2C)n1 [Example 295, 5-Cyano-3-methyl-benzo[b]thiophene-2-sulfonic acid (6-methyl-pyridin-2-yl)-amide] | 0.0023 µM | 100% |  |  | 
Cc1cccc(NS(=O)(=O)c2ccc(-c3cccc(Cl)c3)c(C)c2)n1 [Example 213] | 0.031 µM | 77% |  |  | 
N#Cc1ccc(C2CCN(S(=O)(=O)Nc3ccc4ccccc4n3)CC2)cc1 [Example 308] | < 0.001 µM | 95.7% |  |  | 
Cc1cccc(NS(=O)(=O)c2sc3ccc(Cl)cc3c2C)n1 [Example 46] |  |  | 0.0032 µM | 98% | 
COc1ccc(-c2ccc(S(=O)(=O)Nc3cccc(C)n3)c(C)c2)cc1OC [Example 182] |  |  | 0.023 µM | 79% | 
Cc1cccc(NS(=O)(=O)c2ccc3ccc(Cl)cc3c2)n1 [Example 93] |  |  | 0.0423 µM | 70% | 
Cc1cccc(NS(=O)(=O)c2ccc(-c3ccc(N4CCOCC4)cc3)cc2)n1 [Example 251] | 0.029 µM | 83.6% |  |  | 
O=S(=O)(Nc1ccc2ccccc2n1)c1ccc(-c2ccc(F)cc2)nc1 [Example 291] | 0.027 µM | 92.5% |  |  | 
Cc1cc(C)nc(NS(=O)(=O)c2ccc(-c3ccc(C#N)cc3)cc2)c1 [Example 96] |  |  | 0.007 µM | 100% | 
Cc1cccc(NS(=O)(=O)c2ccc(-c3ccc(Cl)c(Cl)c3)cc2C)n1 [Example 176] |  |  | 0.0052 µM | 100% | 

SMILES | Ki (11β-hsd-1 enzyme [1]; apparent Ki, 11β-hsd-1 enzyme) | inhibition at 0.1 µM (11β-hsd-1 enzyme [2]; compound at 0.1 uM) | Ki (11β-hsd-1 enzyme [1]) | inhibition at 0.1 µM (11β-hsd-1 enzyme [2]; 0.1 uM) | further results
Cc1cccc(NS(=O)(=O)c2sc3ccc(F)cc3c2C)n1 [Example 103] |  |  | < 0.001 µM | 100% | 
COc1ccc(-c2ccc(S(=O)(=O)Nc3cccc(C)n3)cc2)cc1 [Example 161] |  |  | 0.0225 µM | 90.3% | 
Cc1cccc(NS(=O)(=O)c2ccc3c(Cl)cccc3c2)n1 [Example 102] |  |  | < 0.001 µM | 100% | 
Cc1cccc(NS(=O)(=O)c2ccc(-c3ccc(F)c(F)c3)cc2C)n1 [Example 208] | 0.0067 µM | 95% |  |  | 
Cc1cccc(NS(=O)(=O)c2ccc(-c3cccc(CO)c3)c(C)c2)n1 [Example 226] | 0.46 µM | 94% |  |  | 
Cc1cc(-c2ccc(S(=O)(=O)Nc3cccc(N)n3)cc2)ccc1C#N [Example 282, 4′-Cyano-3′-methyl-biphenyl-4-sulfonic acid (6-amino-pyridin-2-yl)-amide] | < 0.001 µM | 100% |  |  | 
Cc1cccc(NS(=O)(=O)c2cc3ccccc3s2)n1 [Example 72] |  |  | 0.0309 µM | 74.6% | 
Cc1cccc(NS(=O)(=O)c2ccc(-c3cccc(C#N)c3)cc2C)n1 [Example 177] |  |  | 0.02 µM | 85% | 
Cc1cccc(NS(=O)(=O)c2ccc(-c3ccc(C#N)cc3)c(C(F)(F)F)c2)n1 [Example 285, 4′-Cyano-2-trifluoromethyl-biphenyl-4-sulfonic acid (6-methyl-pyridin-2-yl)-amide] | 0.0029 µM | 100% |  |  | 
COc1cc(-c2ccc(S(=O)(=O)Nc3cccc(C)n3)cc2)ccc1C#N [Example 270, 4′-Cyano-3′-methoxy-biphenyl-4-sulfonic acid (6-methyl-pyridin-2-yl)-amide] | 0.0107 µM | 94.8% |  |  | 
Cc1cc(C)nc(NS(=O)(=O)c2ccc(-c3ccccc3)cc2)c1 [Example 65] |  |  | 0.0183 µM | 59.4% | 
Cc1cccc(NS(=O)(=O)c2ccc(-c3ccccc3)cc2)n1 [Example 36] |  |  | 0.048 µM | 52% | 
CCc1cccc(NS(=O)(=O)c2sc(-c3ccc(C#N)cc3)nc2C)n1 [Example 119] |  |  | 0.0031 µM | 95% | 
Cc1cccc(NS(=O)(=O)c2ccc(-c3cc(F)cc(F)c3)cc2C)n1 [Example 178] |  |  | 0.0082 µM | 95% | 
Cc1cccc(NS(=O)(=O)c2ccc(-c3ccc(C#N)cc3)cc2O)n1 [Example 286, 4′-Cyano-3-hydroxy-biphenyl-4-sulfonic acid (6-methyl-pyridin-2-yl)-amide] | 0.0062 µM | 100% |  |  | 
Cc1cc(-c2ccc(S(=O)(=O)Nc3ccc4ccccc4n3)cn2)ccc1F [Example 292] | 0.049 µM | 72.4% |  |  | 
Cc1cccc(NS(=O)(=O)c2ccc(-c3ccc(Cl)cc3Cl)cc2C)n1 [Example 167] |  |  | 0.036 µM | 100% | 
Cc1cccc(NS(=O)(=O)c2ccc(-c3ccc(Cl)cc3Cl)c(C)c2)n1 [Example 221] | 0.018 µM | 87% |  |  | 
Cc1cccc(NS(=O)(=O)c2sc(-c3ccc(C#N)cc3)nc2C)n1 [Example 118, 2-(4-Cyano-phenyl)-4-methyl-thiazole-5-sulfonic acid (6-methyl-pyridin-2-yl)-amide] |  |  | 0.0025 µM | 100% | 
Nc1cccc(NS(=O)(=O)c2ccc(-c3ccc(Cl)cc3)cc2)n1 [Example 42] |  |  | 0.0046 µM | 96% | 
